Assay results from publication PMC5448077, “Development of an orally available inhibitor of CLK1 for skipping a mutated dystrophin exon in Duchenne muscular dystrophy” (Scientific Reports, 2017).

Key:
Assay in all cases: biochemical
[1] = biological target: T1, MSK1 (Homo sapiens, UniProt O75582)
T1 construct: gene RPS6KA5
How it was run: (§1)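 Reactions at room temperature in HEPES buffer (20 mM, pH 7.5, 0.01% Triton X-100, 2 mM DTT) lasted 1 or 5 h depending on kinase, with substrate peptide and ATP-metal. Phosphorylation read by electrophoretic mobility shift or IMAP polarization; kinase activity computed as P/(P + S).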

[2] = biological target: CDK3/CycE1 (Homo sapiens, UniProt Q00526)
How it was run: as §1

[3] = biological target: NEK6 (Homo sapiens, UniProt Q9HC98)
How it was run: as §1

[4] = biological target: EPHB1 (Homo sapiens, UniProt P54762)
How it was run: as §1

[5] = biological target: CSK (Homo sapiens, UniProt P41240)
How it was run: as §1

[6] = biological target: PLK3 (Homo sapiens, UniProt Q9H4B4)
How it was run: as §1

[7] = biological target: BMX (Homo sapiens, UniProt P51813)
How it was run: as §1

[8] = biological target: BRSK1 (Homo sapiens, UniProt Q8TDC3)
How it was run: as §1

[9] = biological target: T2, PKCθ (Homo sapiens, UniProt Q04759)
T2 construct: gene PRKCQ
How it was run: as §1

[10] = biological target: CDK4/CycD3 (Homo sapiens, UniProt P11802)
How it was run: as §1

[11] = biological target: T3, PDGFRα(D842V) (Homo sapiens, UniProt P16234, D842V)
T3 construct: gene PDGFRA
How it was run: as §1

[12] = biological target: KIT(V654A) (Homo sapiens, UniProt P10721, V654A)
How it was run: as §1

[13] = biological target: T4, JNK2 (Homo sapiens, UniProt P45984)
T4 construct: gene MAPK9
How it was run: as §1

[14] = biological target: T5, MNK2 (Homo sapiens, UniProt Q9HBH9)
T5 construct: gene MKNK2
How it was run: as §1

[15] = biological target: T6, DCAMKL2 (Homo sapiens, UniProt Q8N568)
T6 construct: gene DCLK2
How it was run: as §1

[16] = biological target: BLK (Homo sapiens, UniProt P51451)
How it was run: as §1

[17] = biological target: AKT2 (Homo sapiens, UniProt P31751)
How it was run: as §1

[18] = biological target: EPHB4 (Homo sapiens, UniProt P54760)
How it was run: as §1

[19] = biological target: T7, HER4 (Homo sapiens, UniProt Q15303)
T7 construct: gene ERBB4
How it was run: as §1

[20] = biological target: SGK3 (Homo sapiens, UniProt Q96BR1)
How it was run: as §1

[21] = biological target: T8, GSK3β (Homo sapiens, UniProt P49841)
T8 construct: gene GSK3B
How it was run: as §1

[22] = biological target: JAK1 (Homo sapiens, UniProt P23458)
How it was run: as §1

[23] = biological target: T9, LOK (Homo sapiens, UniProt O94804)
T9 construct: gene STK10
How it was run: as §1

[24] = biological target: MUSK (Homo sapiens, UniProt O15146)
How it was run: as §1

[25] = biological target: RET (Homo sapiens, UniProt P07949)
How it was run: as §1

[26] = biological target: EGFR(L858R) (Homo sapiens, UniProt P00533, L858R)
How it was run: as §1

[27] = biological target: MELK (Homo sapiens, UniProt Q14680)
How it was run: as §1

[28] = biological target: T10, Erk5 (Homo sapiens, UniProt Q13164)
T10 construct: gene MAPK7
How it was run: as §1

[29] = biological target: TAOK2 (Homo sapiens, UniProt Q9UL54)
How it was run: as §1

[30] = biological target: ALK(R1275Q) (Homo sapiens, UniProt Q9UM73, R1275Q)
How it was run: as §1

[31] = biological target: T11, PKACγ (Homo sapiens, UniProt P22612)
T11 construct: gene PRKACG
How it was run: as §1

Sequence of TAOK2 (Q9UL54 whole entry): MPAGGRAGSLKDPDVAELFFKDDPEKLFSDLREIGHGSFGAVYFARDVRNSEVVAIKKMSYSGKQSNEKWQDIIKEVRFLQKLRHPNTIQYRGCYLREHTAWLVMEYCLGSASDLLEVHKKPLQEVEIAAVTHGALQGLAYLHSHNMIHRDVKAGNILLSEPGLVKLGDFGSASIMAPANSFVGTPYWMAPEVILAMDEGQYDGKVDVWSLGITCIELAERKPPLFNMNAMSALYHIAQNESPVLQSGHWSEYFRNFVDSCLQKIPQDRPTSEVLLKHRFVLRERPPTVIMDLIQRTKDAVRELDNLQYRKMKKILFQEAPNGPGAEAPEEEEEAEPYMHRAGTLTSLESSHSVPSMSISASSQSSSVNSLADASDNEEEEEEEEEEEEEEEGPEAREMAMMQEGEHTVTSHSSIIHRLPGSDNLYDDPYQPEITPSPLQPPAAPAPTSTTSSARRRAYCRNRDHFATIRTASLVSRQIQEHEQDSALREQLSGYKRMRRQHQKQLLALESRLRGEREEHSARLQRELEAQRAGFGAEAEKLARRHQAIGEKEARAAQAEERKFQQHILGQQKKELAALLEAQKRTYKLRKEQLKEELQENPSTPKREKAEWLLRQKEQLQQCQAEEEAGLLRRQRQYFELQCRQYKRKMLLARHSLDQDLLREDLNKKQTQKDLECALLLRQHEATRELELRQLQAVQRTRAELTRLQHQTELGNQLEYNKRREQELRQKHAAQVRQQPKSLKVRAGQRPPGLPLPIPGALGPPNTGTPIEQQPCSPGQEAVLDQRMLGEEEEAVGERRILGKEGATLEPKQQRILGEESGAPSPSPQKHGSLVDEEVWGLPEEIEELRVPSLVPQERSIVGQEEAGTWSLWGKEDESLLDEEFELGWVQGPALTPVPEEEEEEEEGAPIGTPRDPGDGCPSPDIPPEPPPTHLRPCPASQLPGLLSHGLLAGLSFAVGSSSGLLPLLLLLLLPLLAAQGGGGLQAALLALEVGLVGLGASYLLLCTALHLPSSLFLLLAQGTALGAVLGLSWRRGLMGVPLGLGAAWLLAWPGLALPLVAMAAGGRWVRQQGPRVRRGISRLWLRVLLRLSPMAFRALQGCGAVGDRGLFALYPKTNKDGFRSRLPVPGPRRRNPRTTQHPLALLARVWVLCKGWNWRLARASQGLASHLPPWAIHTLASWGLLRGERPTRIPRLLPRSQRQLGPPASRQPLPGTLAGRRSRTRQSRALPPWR
Sequence of ALK(R1275Q) (Q9UM73 whole entry R1275Q): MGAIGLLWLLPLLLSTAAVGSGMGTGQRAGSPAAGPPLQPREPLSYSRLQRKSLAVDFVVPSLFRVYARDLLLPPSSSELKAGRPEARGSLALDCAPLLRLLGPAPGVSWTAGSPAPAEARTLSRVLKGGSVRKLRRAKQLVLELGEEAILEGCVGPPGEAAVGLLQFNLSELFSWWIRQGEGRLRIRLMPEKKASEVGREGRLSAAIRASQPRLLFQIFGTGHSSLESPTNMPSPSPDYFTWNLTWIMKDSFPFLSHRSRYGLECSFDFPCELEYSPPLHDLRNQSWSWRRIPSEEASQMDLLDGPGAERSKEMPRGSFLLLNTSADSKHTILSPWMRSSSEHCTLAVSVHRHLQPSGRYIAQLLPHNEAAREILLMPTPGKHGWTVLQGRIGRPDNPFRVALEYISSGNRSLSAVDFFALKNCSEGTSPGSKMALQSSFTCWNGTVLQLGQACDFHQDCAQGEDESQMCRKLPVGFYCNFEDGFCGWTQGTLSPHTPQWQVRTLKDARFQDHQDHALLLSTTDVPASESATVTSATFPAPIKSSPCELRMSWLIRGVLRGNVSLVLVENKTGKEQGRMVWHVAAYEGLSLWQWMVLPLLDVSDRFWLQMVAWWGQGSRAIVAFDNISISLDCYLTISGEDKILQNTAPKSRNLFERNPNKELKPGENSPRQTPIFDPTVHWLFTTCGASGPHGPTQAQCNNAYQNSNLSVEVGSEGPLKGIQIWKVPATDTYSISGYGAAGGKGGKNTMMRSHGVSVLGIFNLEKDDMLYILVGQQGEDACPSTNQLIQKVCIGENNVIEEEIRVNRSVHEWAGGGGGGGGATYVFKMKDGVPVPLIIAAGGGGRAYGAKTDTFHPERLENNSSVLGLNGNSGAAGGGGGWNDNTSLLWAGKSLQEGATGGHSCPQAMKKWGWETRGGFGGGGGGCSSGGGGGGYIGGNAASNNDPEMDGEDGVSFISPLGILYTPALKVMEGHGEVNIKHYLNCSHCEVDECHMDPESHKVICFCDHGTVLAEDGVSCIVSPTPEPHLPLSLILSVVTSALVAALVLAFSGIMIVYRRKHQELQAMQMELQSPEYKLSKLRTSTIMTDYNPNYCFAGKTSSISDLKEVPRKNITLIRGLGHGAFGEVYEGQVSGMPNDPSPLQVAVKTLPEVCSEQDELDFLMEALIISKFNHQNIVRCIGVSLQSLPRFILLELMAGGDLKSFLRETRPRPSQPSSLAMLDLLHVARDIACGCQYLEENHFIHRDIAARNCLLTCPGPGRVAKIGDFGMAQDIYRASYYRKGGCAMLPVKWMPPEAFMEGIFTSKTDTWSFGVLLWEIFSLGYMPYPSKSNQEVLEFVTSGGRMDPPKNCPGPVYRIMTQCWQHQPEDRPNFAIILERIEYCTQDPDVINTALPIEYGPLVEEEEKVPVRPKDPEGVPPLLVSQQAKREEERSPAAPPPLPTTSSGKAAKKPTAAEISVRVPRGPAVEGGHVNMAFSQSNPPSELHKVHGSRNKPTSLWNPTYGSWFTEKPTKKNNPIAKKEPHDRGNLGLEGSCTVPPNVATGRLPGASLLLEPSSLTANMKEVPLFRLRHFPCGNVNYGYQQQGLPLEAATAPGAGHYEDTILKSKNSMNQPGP
T6 sequence (Q8N568 whole entry): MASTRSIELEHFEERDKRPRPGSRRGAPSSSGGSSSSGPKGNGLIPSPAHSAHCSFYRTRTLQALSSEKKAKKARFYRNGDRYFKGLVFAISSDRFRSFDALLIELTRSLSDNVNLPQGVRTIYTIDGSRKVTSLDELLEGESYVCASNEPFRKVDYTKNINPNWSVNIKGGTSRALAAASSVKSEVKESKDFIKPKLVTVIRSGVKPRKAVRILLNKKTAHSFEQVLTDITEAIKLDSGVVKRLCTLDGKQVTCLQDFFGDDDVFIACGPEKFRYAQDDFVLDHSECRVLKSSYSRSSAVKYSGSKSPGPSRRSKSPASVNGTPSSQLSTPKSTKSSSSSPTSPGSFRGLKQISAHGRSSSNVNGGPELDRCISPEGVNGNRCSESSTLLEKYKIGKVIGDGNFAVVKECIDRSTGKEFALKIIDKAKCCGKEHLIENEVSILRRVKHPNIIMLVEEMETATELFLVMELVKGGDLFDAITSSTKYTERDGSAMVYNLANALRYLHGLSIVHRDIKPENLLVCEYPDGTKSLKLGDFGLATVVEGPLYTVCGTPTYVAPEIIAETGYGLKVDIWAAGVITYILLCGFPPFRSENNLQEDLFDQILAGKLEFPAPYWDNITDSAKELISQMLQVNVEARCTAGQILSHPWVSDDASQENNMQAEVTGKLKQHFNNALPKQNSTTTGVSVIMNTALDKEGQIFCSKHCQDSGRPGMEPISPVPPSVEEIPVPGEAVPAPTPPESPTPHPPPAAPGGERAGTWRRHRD
T5 sequence (Q9HBH9 whole entry): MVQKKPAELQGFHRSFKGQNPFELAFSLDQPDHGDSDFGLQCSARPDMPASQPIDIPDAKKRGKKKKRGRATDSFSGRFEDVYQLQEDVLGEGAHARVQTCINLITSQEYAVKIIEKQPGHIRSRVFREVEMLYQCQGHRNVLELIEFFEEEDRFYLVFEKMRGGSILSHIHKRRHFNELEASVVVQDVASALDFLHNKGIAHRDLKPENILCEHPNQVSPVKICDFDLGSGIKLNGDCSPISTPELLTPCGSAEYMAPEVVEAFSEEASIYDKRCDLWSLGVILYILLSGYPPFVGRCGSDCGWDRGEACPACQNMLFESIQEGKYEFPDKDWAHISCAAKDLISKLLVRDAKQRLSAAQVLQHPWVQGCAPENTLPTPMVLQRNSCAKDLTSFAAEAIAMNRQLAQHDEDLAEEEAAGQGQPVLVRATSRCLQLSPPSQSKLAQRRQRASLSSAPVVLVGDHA
T9 sequence (O94804 whole entry): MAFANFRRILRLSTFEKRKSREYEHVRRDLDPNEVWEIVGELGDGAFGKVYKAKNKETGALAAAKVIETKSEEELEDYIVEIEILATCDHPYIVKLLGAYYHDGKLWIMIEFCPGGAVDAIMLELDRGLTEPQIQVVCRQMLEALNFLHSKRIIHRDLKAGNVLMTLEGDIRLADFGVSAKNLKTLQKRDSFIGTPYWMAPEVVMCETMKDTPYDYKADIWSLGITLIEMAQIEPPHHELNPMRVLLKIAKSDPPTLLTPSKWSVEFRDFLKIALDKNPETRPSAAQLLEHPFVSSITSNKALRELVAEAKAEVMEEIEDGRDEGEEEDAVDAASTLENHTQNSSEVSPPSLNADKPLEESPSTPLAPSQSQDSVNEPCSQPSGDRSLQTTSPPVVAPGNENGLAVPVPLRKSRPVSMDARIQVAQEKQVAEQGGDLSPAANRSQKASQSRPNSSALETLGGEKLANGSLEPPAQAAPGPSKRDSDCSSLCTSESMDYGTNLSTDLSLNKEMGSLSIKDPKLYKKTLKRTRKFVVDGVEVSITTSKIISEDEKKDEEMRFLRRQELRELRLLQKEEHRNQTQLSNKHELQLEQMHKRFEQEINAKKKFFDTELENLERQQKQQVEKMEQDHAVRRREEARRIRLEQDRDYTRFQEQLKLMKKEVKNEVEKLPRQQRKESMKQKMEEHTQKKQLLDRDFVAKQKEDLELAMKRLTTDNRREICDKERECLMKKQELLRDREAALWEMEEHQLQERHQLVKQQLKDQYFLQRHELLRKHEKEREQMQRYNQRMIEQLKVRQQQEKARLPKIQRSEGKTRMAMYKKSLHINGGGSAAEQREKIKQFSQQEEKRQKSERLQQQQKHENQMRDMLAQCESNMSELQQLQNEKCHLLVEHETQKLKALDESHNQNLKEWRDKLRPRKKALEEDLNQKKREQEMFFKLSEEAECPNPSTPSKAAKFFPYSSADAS

Structure (SMILES): c1cc(-c2ccc3[nH]ncc3c2)ccn1 [TG693, 5-(4-pyridinyl)-1H-indazole]
- inhibition at 1 µM [1]: 1.2%
- inhibition at 1 µM [2]: 11.4%
- inhibition at 1 µM [3]: -2.5%
- inhibition at 1 µM [4]: 2.5%
- inhibition at 1 µM [5]: -1.2%
- inhibition at 1 µM [6]: 1.7%
- inhibition at 1 µM [7]: 4.6%
- inhibition at 1 µM [8]: 1.1%
- inhibition at 1 µM [9]: -12.6%
- inhibition at 1 µM [10]: 5.4%
- inhibition at 1 µM [11]: 0.8%
- inhibition at 1 µM [12]: -1.5%
- inhibition at 1 µM [13]: -5.9%
- inhibition at 1 µM [14]: 57.3%
- inhibition at 1 µM [15]: 9.6%
- inhibition at 1 µM [16]: -2.2%
- inhibition at 1 µM [17]: -3%
- inhibition at 1 µM [18]: -1.5%
- inhibition at 1 µM [19]: 5.8%
- inhibition at 1 µM [20]: -3.2%
- inhibition at 1 µM [21]: 8.5%
- inhibition at 1 µM [22]: -0.7%
- inhibition at 1 µM [23]: 5.9%
- inhibition at 1 µM [24]: -5%
- inhibition at 1 µM [25]: 4.8%
- inhibition at 1 µM [26]: 0.4%
- inhibition at 1 µM [27]: 5.7%
- inhibition at 1 µM [28]: 2.2%
- inhibition at 1 µM [29]: 2%
- inhibition at 1 µM [30]: -7.6%
- inhibition at 1 µM [31]: 1.5%
